Results reported in patent US20240327397A1, “Pesticidally Active Fused Bicyclic Heteroaromatic Compounds” (SYNGENTA CROP PROTECTION AG, priority 2021, published 2024).

Tests used:
Format in all cases: in vivo
[1] = tested on: Diabrotica Balteata (Corn Root Worm); experiment: Example B2: Diabrotica balteata, sprayed maize sprouts on agar, L2 larvae; conditions: 96 h, application rate 200 ppm, 4 days after infestation, versus untreated, read-out: effect in at least one of the two categories (mortality or growth inhibition)
Procedure: Example B2: Diabrotica Balteata (Corn Root Worm)
Maize sprouts placed onto an agar layer in 24-well microtiter plates were treated with aqueous test solutions prepared from 10'000 ppm DMSO stock solutions by spraying. After drying, the plates were infested with L2 larvae (6 to 10 per well). The samples were assessed for mortality and growth inhibition in comparison to untreated samples 4 days after infestation.

[2] = tested on: Chilo suppressalis (Striped Rice Stemborer); experiment: Example B1: Chilo suppressalis, artificial diet in 24-well plates, L2 larvae; conditions: 144 h, application rate 200 ppm, 6 days after infestation, versus untreated, read-out: control (at least one of mortality, anti-feedant effect, growth inhibition)
Procedure: Example B1: Chilo suppressalis (Striped Rice Stemborer)
24-well microtiter plates with artificial diet were treated with aqueous test solutions prepared from 10'000 ppm DMSO stock solutions by pipetting. After drying, the plates were infested with L2 larvae (6-8 per well). The samples were assessed for mortality, anti-feeding effect, and growth inhibition in comparison to untreated samples 6 days after infestation. Control of Chilo suppressalis by a test sample is given when at least one of the categories mortality, anti-feedant effect, and growth inhibition is higher than the untreated sample.

[3] = tested on: Plutella xylostella (Diamond Back Moth); experiment: Example B3: Plutella xylostella, artificial diet in 24-well plates, eggs; conditions: 192 h, application rate 200 ppm, 8 days after infestation, versus untreated, read-out: effect in at least one of the two categories (mortality or growth inhibition)
Procedure: Example B3: Plutella xylostella (Diamond Back Moth)
24-well microtiter plates with artificial diet were treated with aqueous test solutions prepared from 10'000 ppm DMSO stock solutions by pipetting. After drying, Plutella eggs were pipetted through a plastic stencil onto a gel blotting paper and the plate was closed with it. The samples were assessed for mortality and growth inhibition in comparison to untreated samples 8 days after infestation.

[4] = tested on: Spodoptera littoralis (Eqyptian Cotton Leaf Worm); experiment: Example B4: Spodoptera littoralis, sprayed cotton leaf discs, L1 larvae; conditions: foliar, 72 h, application rate 200 ppm, 3 days after infestation, versus untreated, read-out: control (at least one of mortality, anti-feedant effect, growth inhibition)
Procedure: Example B4: Spodoptera littoralis (Eqyptian Cotton Leaf Worm)
Cotton leaf discs were placed onto agar in 24-well microtiter plates and sprayed with aqueous test solutions prepared from 10'000 ppm DMSO stock solutions. After drying the leaf discs were infested with five L1 larvae. The samples were assessed for mortality, anti-feeding effect, and growth inhibition in comparison to untreated samples 3 days after infestation. Control of Spodoptera littoralis by a test sample is given when at least one of the categories mortality, anti-feedant effect, and growth inhibition is higher than the untreated sample.

C[C@H](NC1=N[S@@](C)(=O)=Nc2c(Br)cc(Br)cc21)c1ncnn1-c1ccc(C#N)cn1 (single isomer, unassigned) [P6]
≥ 80%: percent effect (mortality or growth inhibition) at 200 ppm [1] | percent control (mortality, anti-feedant effect or growth inhibition) at 200 ppm [2] | percent effect (mortality or growth inhibition) at 200 ppm [3] | percent control (mortality, anti-feedant effect or growth inhibition) at 200 ppm [4]

C[C@H](NC1=N[S@](C)(=O)=Nc2c(Br)cc(Br)cc21)c1ncnn1-c1ccc(C#N)cn1 (single isomer, unassigned) [P7]
≥ 80%: percent effect (mortality or growth inhibition) at 200 ppm [1] | percent control (mortality, anti-feedant effect or growth inhibition) at 200 ppm [2] | percent effect (mortality or growth inhibition) at 200 ppm [3] | percent control (mortality, anti-feedant effect or growth inhibition) at 200 ppm [4]

C[C@H](NC1=NS(C)(=O)=Nc2c(Cl)cc(C(F)(F)F)cc21)c1nccnc1-c1cnccn1 (stereo partly drawn) [P12, 10-chloro-3-methyl-3-oxo-N-[(1S)-1-(3-pyrazin-2-ylpyrazin-2-yl)ethyl]-8-(trifluoromethyl)-3λ^6-thia-2,4-diazabicyclo[4.4.0]deca-1(6),2,4,7,9-pentaen-5-amine]
≥ 80%: percent effect (mortality or growth inhibition) at 200 ppm [1] | percent effect (mortality or growth inhibition) at 200 ppm [3] | percent control (mortality, anti-feedant effect or growth inhibition) at 200 ppm [4]

C[C@H](NC1=N[S@@](C)(=O)=Nc2ccc(Br)cc21)c1ncnn1-c1ccc(C#N)cn1 (single isomer, unassigned) [P9]
≥ 80%: percent effect (mortality or growth inhibition) at 200 ppm [1] | percent control (mortality, anti-feedant effect or growth inhibition) at 200 ppm [2] | percent effect (mortality or growth inhibition) at 200 ppm [3] | percent control (mortality, anti-feedant effect or growth inhibition) at 200 ppm [4]

C[C@H](NC1=NS(C)(=O)=Nc2c(Br)cc(Br)cc21)c1ncnn1-c1cnccn1 (stereo partly drawn) [P11, 8,10-dibromo-3-methyl-3-oxo-N-[(1S)-1-(2-pyrazin-2-yl-1,2,4-triazol-3-yl)ethyl]-3λ^6-thia-2,4-diazabicyclo[4.4.0]deca-1(6),2,4,7,9-pentaen-5-amine]
≥ 80%: percent effect (mortality or growth inhibition) at 200 ppm [1] | percent control (mortality, anti-feedant effect or growth inhibition) at 200 ppm [2] | percent effect (mortality or growth inhibition) at 200 ppm [3] | percent control (mortality, anti-feedant effect or growth inhibition) at 200 ppm [4]

C[C@H](NC1=NS(C)(=O)=Nc2c(Cl)cc(C(F)(F)F)cc21)c1ncnn1-c1ccc(C#N)cn1 (stereo partly drawn) [P15]
≥ 80%: percent effect (mortality or growth inhibition) at 200 ppm [1] | percent effect (mortality or growth inhibition) at 200 ppm [3] | percent control (mortality, anti-feedant effect or growth inhibition) at 200 ppm [4]

C[C@H](NC1=NS(C)(=O)=Nc2c1cc(Cl)cc2C(F)(F)F)c1ncnn1-c1cnccn1 (stereo partly drawn) [P17, 8-chloro-3-methyl-3-oxo-N-[(1S)-1-(2-pyrazin-2-yl-1,2,4-triazol-3-yl)ethyl]-10-(trifluoromethyl)-3λ^6-thia-2,4-diazabicyclo[4.4.0]deca-1(6),2,4,7,9-pentaen-5-amine]
≥ 80%: percent effect (mortality or growth inhibition) at 200 ppm [1] | percent effect (mortality or growth inhibition) at 200 ppm [3] | percent control (mortality, anti-feedant effect or growth inhibition) at 200 ppm [4]

CC(NC1=CS(C)(=O)=Nc2c1cc(C(F)(F)F)cc2C(F)(F)F)c1ncnn1-c1ccc(C#N)cn1 (stereo not drawn) [P3]
≥ 80%: percent control (mortality, anti-feedant effect or growth inhibition) at 200 ppm [2] | percent control (mortality, anti-feedant effect or growth inhibition) at 200 ppm [4]

C[C@H](NC1=N[S@](C)(=O)=Nc2ccc(Br)cc21)c1ncnn1-c1ccc(C#N)cn1 (single isomer, unassigned) [P8]
≥ 80%: percent control (mortality, anti-feedant effect or growth inhibition) at 200 ppm [2] | percent effect (mortality or growth inhibition) at 200 ppm [3] | percent control (mortality, anti-feedant effect or growth inhibition) at 200 ppm [4]

C[C@@H](c1ncnn1-c1cnccn1)N(C)C1=NS(C)(=O)=Nc2c1cc(Cl)cc2C(F)(F)F (stereo partly drawn) [P20, 8-chloro-N,3-dimethyl-3-oxo-N-[(1S)-1-(2-pyrazin-2-yl-1,2,4-triazol-3-yl)ethyl]-10-(trifluoromethyl)-3λ^6-thia-2,4-diazabicyclo[4.4.0]deca-1(6),2,4,7,9-pentaen-5-amine]
≥ 80%: percent effect (mortality or growth inhibition) at 200 ppm [1] | percent effect (mortality or growth inhibition) at 200 ppm [3] | percent control (mortality, anti-feedant effect or growth inhibition) at 200 ppm [4]
